Experiment [1] deals with Acinetobacter lwoffii. As to the kind of experiment: Antibacterial activity against […] expressing Acinetobacter lwoffii AI.88-483 after 24 hrs by geometric microdilution method. In kind it is functional. Conditions: AI.88-483, 24 h. On the technique in general: In broth dilution the organism is exposed to a series of concentrations in liquid medium.
In experiment [2] the test system is Pseudomonas aeruginosa. As to the kind of experiment: Antibacterial activity against Pseudomonas aeruginosa ATCC 27853 after 24 hrs by geometric microdilution method. Particulars: ATCC 27853, 24 h. In kind it is functional.
Experiment [3] deals with Pseudomonas aeruginosa. Nature of the experiment: Antibacterial activity against AAC6'-2a expressing Pseudomonas aeruginosa F03 after 24 hrs by geometric microdilution method. In kind it is functional. Conditions: F03, 24 h.
Experiment [4] concerns Pseudomonas aeruginosa. As to the kind of experiment: Antibacterial activity against MexXY expressing Pseudomonas aeruginosa PT629 after 24 hrs by geometric microdilution method. Format: functional. Conditions: PT629, 24 h.
The subject of experiment [5] is Klebsiella pneumoniae. As to the kind of experiment: Antibacterial activity against Klebsiella pneumoniae ATCC 700603 after 24 hrs by geometric microdilution method. Format: functional. Particulars: ATCC 700603, 24 h.
For experiment [6], the system named is Escherichia coli. Nature of the experiment: Antibacterial activity against AAC6'-2b expressing Escherichia coli PAZ505H8101 after 24 hrs by geometric microdilution method. Format: functional. Conditions: PAZ505H8101, 24 h.
The subject of experiment [7] is Escherichia coli. Nature of the experiment: Antibacterial activity against ANT2'-2a expressing Escherichia coli L58058.1 after 24 hrs by geometric microdilution method. Format: functional. Conditions: L58058.1, 24 h.
Experiment [8] relates to Pseudomonas aeruginosa. Nature of the experiment: Antibacterial activity against Pseudomonas aeruginosa PAO1 after 24 hrs by geometric microdilution method. Format: functional. Conditions: PAO1, 24 h.
Experiment [9] deals with Pseudomonas aeruginosa. As to the kind of experiment: Antibacterial activity against MexCD expressing Pseudomonas aeruginosa PA01 after 24 hrs by geometric microdilution method. Format: functional. Particulars: PA01, 24 h.
Experiment [10] relates to Pseudomonas aeruginosa. As to the kind of experiment: Antibacterial activity against MexEF expressing Pseudomonas aeruginosa PA03 after 24 hrs by geometric microdilution method. In kind it is functional. Conditions: PA03, 24 h.
Experiment [11] has as its system Pseudomonas aeruginosa. Nature of the experiment: Antibacterial activity against MexAB expressing Pseudomonas aeruginosa PA21 after 24 hrs by geometric microdilution method. Format: functional. Conditions: PA21, 24 h.
Experiment [12] deals with Pseudomonas aeruginosa. Nature of the experiment: Antibacterial activity against MexXY expressing Pseudomonas aeruginosa PA22 after 24 hrs by geometric microdilution method. Format: functional. Conditions: PA22, 24 h.
For experiment [13], the system named is Pseudomonas aeruginosa. As to the kind of experiment: Antibacterial activity against TriABC expressing MexAB, MexCD, MexEF, MexXY deleted Pseudomonas aeruginosa PA405 after 24 hrs by geometric microdilution method. Particulars: PA405, 24 h. Format: functional.
For experiment [14], the system named is Pseudomonas aeruginosa. As to the kind of experiment: Antibacterial activity against MexAB, MexCD, MexEF, MexXY, TriABC deleted Pseudomonas aeruginosa PA406 after 24 hrs by geometric microdilution method. Format: functional. Particulars: PA406, 24 h.
Experiment [15] concerns Citrobacter amalonaticus. As to the kind of experiment: Antibacterial activity against R-methylase expressing Citrobacter amalonaticus 06AB0010 after 24 hrs by geometric microdilution method. In kind it is functional. Particulars: 06AB0010, 24 h.
The subject of experiment [16] is Escherichia coli. Nature of the experiment: Antibacterial activity against R-methylase expressing Escherichia coli 06AB003 after 24 hrs by geometric microdilution method. Conditions: 06AB003, 24 h. Format: functional.
The test system of experiment [17] is Klebsiella aerogenes. As to the kind of experiment: Antibacterial activity against R-methylase expressing Enterobacter aerogenes 06AB008 after 24 hrs by geometric microdilution method. In kind it is functional. Particulars: 06AB008, 24 h.
For experiment [18], the system named is Acinetobacter lwoffii. As to the kind of experiment: microbe, parasite or virus in culture. Particulars: ATCC 17925, 24 h.
Description: Antibacterial activity against Acinetobacter lwoffii ATCC 17925 after 24 hrs by geometric microdilution method
In experiment [19] the test system is Escherichia coli. As to the kind of experiment: microbe, parasite or virus in culture. Conditions: ATCC 25922, 24 h.
Description: Antibacterial activity against Escherichia coli ATCC 25922 after 24 hrs by geometric microdilution method
The test system of experiment [20] is Pseudomonas aeruginosa. Nature of the experiment: Inhibition of protein synthesis in Pseudomonas aeruginosa ATCC 27853 assessed as decrease in incorporation of L-[4,5-3H]leucine at 10 times MIC by liquid scintillation counter relative to control. Format: functional.
Experiment [21] addresses Nucleic Acid. As to the kind of experiment: Binding affinity to bacterial rRNA A site at 200 uM by isothermal titration calorimetry. In kind it is nucleic-acid assay.
The test system of experiment [22] is Staphylococcus aureus. As to the kind of experiment: Antibacterial activity against MsrA pump expressing Staphylococcus aureus after 24 hrs by geometric microdilution method. In kind it is functional.
Experiment [23] concerns Staphylococcus aureus. Nature of the experiment: Antibacterial activity against aminoglycoside-6'-N-acetyltransferase/2''-O-phosphoryltransferase expressing Staphylococcus aureus after 24 hrs by geometric microdilution method. In kind it is functional.
For experiment [24], the system named is Staphylococcus aureus. As to the kind of experiment: Antibacterial activity against aminoglycoside-3'-O-phosphoryltransferase expressing Staphylococcus aureus after 24 hrs by geometric microdilution method. Format: functional.
The test system of experiment [25] is Staphylococcus aureus. As to the kind of experiment: Antibacterial activity against aminoglycoside-4'-O-phosphoryltransferase expressing Staphylococcus aureus after 24 hrs by geometric microdilution method. Format: functional.
In experiment [26] the test system is Staphylococcus aureus. As to the kind of experiment: Antibacterial activity against methicillin-resistant Staphylococcus aureus ATCC 33592 clinical isolate after 24 hrs by geometric microdilution method. In kind it is functional. Conditions: ATCC 33592, 24 h.
For experiment [27], the system named is Staphylococcus aureus. Nature of the experiment: Antibacterial activity against vancomycin-resistant Staphylococcus aureus VRS-2 after 24 hrs by geometric microdilution method. Particulars: VRS-2, 24 h. Format: functional.
For experiment [28], the system named is Staphylococcus aureus. As to the kind of experiment: Antibacterial activity against Staphylococcus aureus ATCC 25923 after 24 hrs by geometric microdilution method. In kind it is functional. Conditions: ATCC 25923, 24 h.
Experiment [29] deals with Staphylococcus aureus. As to the kind of experiment: Antibacterial activity against NorA pump expressing Staphylococcus aureus after 24 hrs by geometric microdilution method. Format: functional.

The structures appear in SMILES notation. ≈ marks a conversion by molar mass, not a printed value. Some results are limits rather than exact numbers.

`NCC[C@H](O)C(=O)N[C@@H]1C[C@H](N)[C@@H](O[C@H]2O[C@H](CN)[C@@H](O)[C@H](O)[C@H]2O)[C@H](O)[C@H]1O[C@H]1O[C@H](CO)[C@@H](O)[C@H](N)[C@H]1O` [AMIKACIN]: the MIC in experiment [1] was over 128 µg/mL; in experiment [2], 2 µg/mL (≈ 3.42 µM); in experiment [3] it was 4 µg/mL (≈ 6.83 µM); in experiment [4], 8 µg/mL (≈ 13.7 µM); in experiment [5] it was 0.5 µg/mL (≈ 0.854 µM); in experiment [6] it was 32 µg/mL (≈ 54.6 µM). The MIC was determined as 2 µg/mL (≈ 3.42 µM) in experiment [7]; 2 µg/mL (≈ 3.42 µM) in experiment [8]; 2 µg/mL (≈ 3.42 µM) in [9]; 2 µg/mL (≈ 3.42 µM) in experiment [10]; 2 µg/mL (≈ 3.42 µM) in [11]; 8 µg/mL (≈ 13.7 µM) in experiment [12]. Besides, the MIC is 0.5 µg/mL (≈ 0.854 µM) in [13]; 1 µg/mL (≈ 1.71 µM) in experiment [14]; over 128 µg/mL in experiment [15]; over 128 µg/mL in [16]; over 128 µg/mL in experiment [17]; 0.5 µg/mL (≈ 0.854 µM) in experiment [18]. Further, the MIC in experiment [19] amounted to 4 µg/mL (≈ 6.83 µM).

In the case of `NC[C@H]1O[C@H](O[C@H]2[C@H](O)[C@@H](OCc3ccc4ccccc4c3)[C@H](N)C[C@@H]2N)[C@H](N)[C@@H](OCc2ccc3ccccc3c2)[C@@H]1OCc1ccc2ccccc2c1`, the MIC is 32 µg/mL (≈ 43.1 µM) in experiment [1]; 8 µg/mL (≈ 10.8 µM) in experiment [2]; 8 µg/mL (≈ 10.8 µM) in experiment [3]; 4 µg/mL (≈ 5.38 µM) in experiment [4]; 16 µg/mL (≈ 21.5 µM) in experiment [5]; 4 µg/mL (≈ 5.38 µM) in experiment [6]. In addition, the MIC in experiment [7] turned out to be 4 µg/mL (≈ 5.38 µM); in experiment [8], 8 µg/mL (≈ 10.8 µM); in experiment [9], 4 µg/mL (≈ 5.38 µM); in [10] it was 4 µg/mL (≈ 5.38 µM); in experiment [11] it was 4 µg/mL (≈ 5.38 µM); in [12], 4 µg/mL (≈ 5.38 µM). Besides, the MIC in [13], in experiment [14], in experiment [15], in experiment [16] and in [17] was 4 µg/mL (≈ 5.38 µM) throughout. The “inhibition (INH)” value in experiment [20] is given as 60%. In [21], this molecule had a Kd of 10 µM.

`NC[C@H]1O[C@H](O[C@H]2[C@H](OCc3ccc4ccccc4c3)[C@@H](O)[C@H](N)C[C@@H]2N)[C@H](N)[C@@H](O)[C@@H]1OCc1ccc2ccccc2c1`: the MIC in experiment [22] came to 128 µg/mL (≈ 212 µM); in experiment [23], 128 µg/mL (≈ 212 µM); in [24], 32 µg/mL (≈ 53.1 µM); in [25], 128 µg/mL (≈ 212 µM); in experiment [26], 64 µg/mL (≈ 106 µM); in [27], 64 µg/mL (≈ 106 µM). Moreover, the MIC in experiment [1] was over 128 µg/mL; in experiment [2] it was 128 µg/mL (≈ 212 µM); in experiment [3], over 128 µg/mL; in experiment [4], over 128 µg/mL; in experiment [5], over 128 µg/mL; in experiment [6], 128 µg/mL (≈ 212 µM). Also, the MIC was 128 µg/mL (≈ 212 µM) in experiment [7]; over 128 µg/mL in experiment [8]; over 128 µg/mL in [9]; over 128 µg/mL in [10]; over 128 µg/mL in experiment [11]; over 128 µg/mL in experiment [12]. Moreover, the MIC in experiment [13] is 16 µg/mL (≈ 26.5 µM); in experiment [14], 16 µg/mL (≈ 26.5 µM); in experiment [28] it was 64 µg/mL (≈ 106 µM); in [29] it was 128 µg/mL (≈ 212 µM); in experiment [18] it was 32 µg/mL (≈ 53.1 µM); in experiment [19], 128 µg/mL (≈ 212 µM).

Regarding `NC[C@H]1O[C@H](O[C@H]2[C@H](O)[C@@H](O[C@H]3O[C@H](CO)[C@@H](O)[C@H](N)[C@H]3O)[C@H](N)C[C@@H]2N)[C@H](N)C[C@@H]1O` [TOBRAMYCIN], the MIC in experiment [1] was 1 µg/mL (≈ 2.14 µM); in experiment [2], 0.5 µg/mL (≈ 1.07 µM); in [3], 128 µg/mL (≈ 274 µM); in [4], 1 µg/mL (≈ 2.14 µM); in experiment [5], 4 µg/mL (≈ 8.56 µM); in [6] it was 32 µg/mL (≈ 68.4 µM). Also, the MIC in experiment [7] is 64 µg/mL (≈ 137 µM); in experiment [8] it was 0.5 µg/mL (≈ 1.07 µM); in experiment [9] it was 0.5 µg/mL (≈ 1.07 µM); in [10], under 0.25 µg/mL; in experiment [11], 0.5 µg/mL (≈ 1.07 µM); in experiment [12], 1 µg/mL (≈ 2.14 µM). The MIC in experiment [13] was under 0.25 µg/mL; in [14] it was under 0.25 µg/mL; in experiment [15], over 128 µg/mL; in experiment [16], over 128 µg/mL; in experiment [17], over 128 µg/mL; in [18] it was 0.5 µg/mL (≈ 1.07 µM). This molecule also came in with an MIC in experiment [19] of 0.5 µg/mL (≈ 1.07 µM).

The Kd is the constant that tells how readily two partners part at equilibrium. Lower therefore signals a tighter complex.
